Here are results for one substance from patent US20160324174A1, “EDIBLE COATING FOR PRESERVING PIECES OF FRUIT, PRODUCTION METHOD AND APPLICATION THEREOF” (PRODUCTION AND INNOVATION ON EDIBLE COATINGS, S.L., priority 2014, published 2016).

In the assay the test system is pieces of apple (Golden delicious). As to the kind of experiment: Sensory evaluation of coated pieces of apple during 15 days storage at 4° C. The settings on record: for Hydration: scale 1 to 10, 10 = complete hydration of the product surface; for Texture: scale 1 to 10, 10 = firm crisp texture; for Color: sensory scale 1 to 10, 10 = total absence of browning. As to the method:
Apples of the Golden delicious variety were used. They were washed on the surface and disinfected by immersion in a sodium hypochlorite (80 ppm) solution. After disinfection, the apples were cored and cut manually into […] (quarters), which were immediately coated. […] In any of the cases, the components were dissolved in water, by constant stirring, until completely dissolved, the temperature of both the water and of the solution being held at 6° C. until their use as coating. The pieces of apple were immersed for 1 minute in each of the solutions. In the case of the control sample, the pieces of apple were immersed in cold water for the same period of time. After this, the samples were drained for 1 minute in order to remove any excess coating that might remain on the surface of the fruit. Finally, the fruit was manually packaged in plastic tubs (PET), without the use of a modified atmosphere, and stored at 4° C. for 15 days. […] The scale of evaluation was from 1 to 10, 10 being the highest mark awarded to the parameter evaluated, namely, a product with the same quality as the freshly cut fruit, and 1 being a very bad quality product (rejectable).

Setting [1] is: apple pieces, day 1 in storage at 4° C.
[2] abbreviates: apple pieces, day 8 in storage at 4° C.
Where [3] appears, read: apple pieces, day 15 in storage at 4° C.

Regarding “calcium ascorbate [Calcium ascorbate (6% p/p)]”, the “appearance of first symptoms of dehydration” value (apple pieces in storage at 4° C.) is listed as “from the first week of storage”. For the same substance, the “maintenance of the original color of the apple” value (apple pieces, 15 days storage at 4° C.) was “throughout almost all of the period of storage”. Besides, under setting [1], the General appearance result was “Good”, the Hydration is recorded as 10, the Texture was determined as 10 and the Color was 10. Further, under setting [2], the General appearance result is “Dehydrated”, the Hydration was determined as 5, the Texture is reported as 8 and the Color is recorded as 9. For the same substance, under setting [3], the General appearance entry is “Very dehydrated,”, the Hydration is given as 4, the Texture is 7 and the Color is 8.
